Structures can show the parent of a compound that is named as a salt.
Tests used:
recombinant human MAO-A = molecular target: T1, recombinant human MAO-A (Homo sapiens, UniProt P21397); experiment: Monoamine oxidase-A inhibition assay (Amplex red fluorescence); assay type: biochemical; conditions: ±sem; for inhibition at 1 µM: single dose concentration of 1 µM, NI = no measured inhibition, read-out: % Inhibition MAO-A
T1 sequence (P21397 1-527): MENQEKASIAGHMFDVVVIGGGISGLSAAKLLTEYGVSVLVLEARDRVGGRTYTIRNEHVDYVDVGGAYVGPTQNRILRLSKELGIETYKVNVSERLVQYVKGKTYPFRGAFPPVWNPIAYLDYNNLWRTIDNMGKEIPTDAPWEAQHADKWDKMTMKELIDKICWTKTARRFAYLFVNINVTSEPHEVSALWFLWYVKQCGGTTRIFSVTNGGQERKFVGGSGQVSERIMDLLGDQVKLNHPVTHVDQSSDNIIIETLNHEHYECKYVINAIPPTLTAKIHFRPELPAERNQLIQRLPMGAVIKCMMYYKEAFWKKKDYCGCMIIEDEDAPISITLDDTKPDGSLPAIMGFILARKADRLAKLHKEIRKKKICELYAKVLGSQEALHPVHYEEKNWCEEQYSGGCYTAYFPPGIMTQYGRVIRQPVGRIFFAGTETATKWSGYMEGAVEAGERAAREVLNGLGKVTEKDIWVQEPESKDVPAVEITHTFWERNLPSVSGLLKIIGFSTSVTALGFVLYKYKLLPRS
Protocol: Two isoforms of MAOs, namely MAO-A and MAO-B, are expressed in CNS, showing different substrate specificity. Consequently, different pharmacological effects can be elicited depending on the inhibited MAO isoform. Therefore, the prepared O^6-aminoalkyl-hispidol analogs were evaluated against both recombinant human MAO-A and MAO-B isoforms following the well-established spectrophotometric method.
2. Biological evaluations
2.1. In vitro assay of human monoamine oxidases inhibition
The MAO activity was quantified by measuring fluorescence intensity evoked by Amplex red reaction in which Amplex red reacts with hydrogen peroxide from the MAO reaction to produce highly fluorescent resorufin. The test compound in DMSO (final concentration: 1 nM – 10 μM or 10 nM – 100 μM ) and hMAO enzyme (Sigma Aldrich, St. Louis, MO, USA) in 50 mM sodium phosphate buffer (pH 7.4, final protein amount: ~1.25 μg of MAO-A/well and 2.5 μg of MAO-B/well) were loaded on 96-well black plate and incubated for 15 min at 37 °C. Then working solution of 200 μM Amplex Red (Cayman, Ann Arbor, MI, USA), 1 U/mL horseradish peroxidase (Sigma-Aldrich) and 1 mM substrate (p-tyramine for MAO-A, benzylamine for MAO-B, Sigma-Aldrich) in 50 mM sodium phosphate buffer (pH 7.4) was added and incubated for 20 min at 37 °C in the dark. The fluorescence was measured using a microplate reader (SpectraMax®i3, Molecular Device, San Jose, CA, USA) with an excitation at 545 nm and an emission at 590 nm. […]
of compounds were determined as the mean ± S.E.M. in triplicate from the dose-response inhibition curves using SigmaPlot® 13.0.

recombinant human MAO-B = molecular target: T2, recombinant human MAO-B (Homo sapiens, UniProt P27338); experiment: biochemical; conditions: ±sem; for inhibition at 10 µM: single dose concentration of 10 µM
T2 construct: purchased Sigma Aldrich
T2 sequence (P27338 1-520): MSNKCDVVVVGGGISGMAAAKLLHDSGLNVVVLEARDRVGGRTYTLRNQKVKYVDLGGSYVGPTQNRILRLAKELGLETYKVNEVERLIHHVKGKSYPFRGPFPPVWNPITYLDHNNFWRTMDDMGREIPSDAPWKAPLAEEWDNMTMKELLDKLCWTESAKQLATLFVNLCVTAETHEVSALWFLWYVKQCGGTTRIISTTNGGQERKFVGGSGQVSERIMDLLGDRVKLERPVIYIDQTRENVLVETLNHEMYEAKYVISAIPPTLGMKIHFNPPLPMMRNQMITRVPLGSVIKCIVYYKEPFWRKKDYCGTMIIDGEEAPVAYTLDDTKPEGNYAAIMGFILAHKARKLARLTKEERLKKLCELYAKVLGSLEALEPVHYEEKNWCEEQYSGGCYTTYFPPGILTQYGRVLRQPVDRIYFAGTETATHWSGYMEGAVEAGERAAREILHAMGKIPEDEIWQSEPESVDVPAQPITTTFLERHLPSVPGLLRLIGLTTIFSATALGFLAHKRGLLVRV

`COc1cccc(/C=C2\Oc3cc(OCCCN4CCCC4)ccc3C2=O)c1` [Compound 3ag] was tested. Which inhibition at 1 µM (recombinant human MAO-A) did it give?
The inhibition at 1 µM was 12.2 ± 1.05%.

What about the inhibition at 10 µM (recombinant human MAO-B) of the same molecule?
The inhibition at 10 µM was 16.99 ± 0.11%.

Which results are given for `COc1ccc(/C=C2\Oc3cc(OCCCCCN4CCCCC4)ccc3C2=O)cc1OC` [Compound 3as, (Z)-2-(3,4-Dimethoxybenzylidene)-6-(5-(piperidin-1-yl)pentoxy)benzofuran-3(2H)-one hydrochloride]?
inhibition at 1 µM (recombinant human MAO-A): < 0%; inhibition at 10 µM (recombinant human MAO-B): 4.76 ± 1.91%

With `CCN(CC)CCCOc1ccc2c(c1)O/C(=C\c1cccc(OC)c1)C2=O` [Compound 3ae] as the molecule, how does the inhibition at 1 µM (recombinant human MAO-A) read?
The inhibition at 1 µM was < 0%.

And the inhibition at 10 µM (recombinant human MAO-B)?
The inhibition at 10 µM was 18.8 ± 0.45%.

For `COc1cccc(/C=C2\Oc3cc(OCCCN4CCCCC4)ccc3C2=O)c1` [Compound 3ah], which inhibition at 1 µM (recombinant human MAO-A) is on record?
Its inhibition at 1 µM is < 0%.

And the inhibition at 10 µM (recombinant human MAO-B)?
Its inhibition at 10 µM is 18.1 ± 1.83%.

With `COc1ccccc1/C=C1\Oc2cc(OCCN3CCCC3)ccc2C1=O` [Compound 3ab] as the molecule, how does the inhibition at 1 µM (recombinant human MAO-A) read?
Its inhibition at 1 µM is < 0%.

And the inhibition at 10 µM (recombinant human MAO-B)?
The inhibition at 10 µM was 43 ± 0.55%.

Which inhibition at 1 µM (recombinant human MAO-A) does the source give for `COc1ccc(/C=C2\Oc3cc(OCCCN4CCCC4)ccc3C2=O)c(OC)c1` [Compound 3az] here?
The inhibition at 1 µM was < 0%.

What about the inhibition at 10 µM (recombinant human MAO-B) of the same molecule?
The inhibition at 10 µM was 35.87 ± 0.17%.

How did the inhibition at 1 µM (recombinant human MAO-A) turn out when `CCN(CC)CCOc1ccc2c(c1)O/C(=C\c1cccc(OC)c1)C2=O` [Compound 3ad] was run?
Its inhibition at 1 µM is < 0%.

And the inhibition at 10 µM (recombinant human MAO-B)?
The inhibition at 10 µM was 46.09 ± 0.11%.

What does the source list for `COc1ccc(/C=C2\Oc3cc(OCCN4CCCC4)ccc3C2=O)cc1` [Compound 3aj]?
inhibition at 1 µM (recombinant human MAO-A): 3.26 ± 0.75%; inhibition at 10 µM (recombinant human MAO-B): 39.26 ± 0.03%

For `COc1ccc(/C=C2\Oc3cc(OCCN4CCCC4)ccc3C2=O)cc1OC` [Compound 3an], which inhibition at 1 µM (recombinant human MAO-A) is on record?
The inhibition at 1 µM was < 0%.

What about the inhibition at 10 µM (recombinant human MAO-B) of the same molecule?
The inhibition at 10 µM was 48.1 ± 1.46%.

For `COc1ccc(/C=C2\Oc3cc(OCCN4CCCC4)ccc3C2=O)c(OC)c1` [Compound 3aw], which inhibition at 1 µM (recombinant human MAO-A) is on record?
Its inhibition at 1 µM is 12.7 ± 0.54%.

And the inhibition at 10 µM (recombinant human MAO-B)?
The inhibition at 10 µM was 41.6 ± 1.03%.

For `COc1cc(/C=C2\Oc3cc(OCCN4CCCCC4)ccc3C2=O)cc(OC)c1OC` [Compound 3bd], which inhibition at 1 µM (recombinant human MAO-A) is on record?
The inhibition at 1 µM was < 0%.

And the inhibition at 10 µM (recombinant human MAO-B)?
Its inhibition at 10 µM is 27.9 ± 0.36%.

For `COc1cccc(/C=C2\Oc3cc(OCCCN4CCCC4)ccc3C2=O)c1OC` [Compound 3ay], which inhibition at 1 µM (recombinant human MAO-A) is on record?
The inhibition at 1 µM was < 0%.

What about the inhibition at 10 µM (recombinant human MAO-B) of the same molecule?
Its inhibition at 10 µM is 4.37 ± 0.9%.

Which inhibition at 1 µM (recombinant human MAO-A) does the source give for `COc1ccccc1/C=C1\Oc2cc(OCCCN3CCCC3)ccc2C1=O` [Compound 3ac] here?
Its inhibition at 1 µM is 1.31 ± 0.82%.

And the inhibition at 10 µM (recombinant human MAO-B)?
Its inhibition at 10 µM is 32.27 ± 0.23%.

What does the source list for `COc1ccc(/C=C2\Oc3cc(OCCN4CCCCC4)ccc3C2=O)cc1` [Compound 3am]?
inhibition at 1 µM (recombinant human MAO-A): 0.92 ± 0.83%; inhibition at 10 µM (recombinant human MAO-B): 20.6 ± 0.79%

For `COc1ccc(/C=C2\Oc3cc(OCCCN4CCCCC4)ccc3C2=O)cc1OC` [Compound 3aq], which inhibition at 1 µM (recombinant human MAO-A) is on record?
The inhibition at 1 µM was < 0%.

And the inhibition at 10 µM (recombinant human MAO-B)?
The inhibition at 10 µM was 4.51 ± 1.3%.

Which inhibition at 1 µM (recombinant human MAO-A) does the source give for `COc1cc(/C=C2\Oc3cc(OCCCN4CCCC4)ccc3C2=O)cc(OC)c1` [Compound 3au] here?
The inhibition at 1 µM was < 0%.

And the inhibition at 10 µM (recombinant human MAO-B)?
The inhibition at 10 µM was 21.2 ± 0.3%.

`COc1ccc(OC)c(/C=C2\Oc3cc(OCCN4CCCC4)ccc3C2=O)c1` [Compound 3ax] was tested. Which inhibition at 1 µM (recombinant human MAO-A) did it give?
Its inhibition at 1 µM is < 0%.

What about the inhibition at 100 µM (recombinant human MAO-A; single dose concentration of 100 µM, read-out: MAO-A % Inhibition) of the same molecule?
The inhibition at 100 µM was ~28%.

What about the IC50 (recombinant human MAO-A; read-out: MAO-A IC50) of the same molecule?
The IC50 was > 100 µM.

And the inhibition at 10 µM (recombinant human MAO-B)?
The inhibition at 10 µM was 65.05 ± 0.43%.

What about the IC50 (recombinant human MAO-B; five doses) of the same molecule?
Its IC50 is 3.16 ± 0.036 µM.

Which results are given for `COc1cccc(/C=C2\Oc3cc(OCCN4CCCC4)ccc3C2=O)c1OC` [Compound 3av]?
inhibition at 1 µM (recombinant human MAO-A): 12.6 ± 0.32%; inhibition at 10 µM (recombinant human MAO-B): 2.61 ± 1.78%

Which results are given for `COc1cc(/C=C2\Oc3cc(OCCN4CCCC4)ccc3C2=O)cc(OC)c1` [Compound 3at]?
inhibition at 1 µM (recombinant human MAO-A): < 0%; inhibition at 10 µM (recombinant human MAO-B): 36.8 ± 0.44%

Which results are given for `COc1ccc(/C=C2\Oc3cc(OCCCN4CCCC4)ccc3C2=O)cc1` [Compound 3ak]?
inhibition at 1 µM (recombinant human MAO-A): 9.83 ± 0.64%; inhibition at 10 µM (recombinant human MAO-B): 45.64 ± 0.08%

With `COc1ccc(OC)c(/C=C2\Oc3cc(OCCCN4CCCC4)ccc3C2=O)c1` [Compound 3ba] as the molecule, how does the inhibition at 1 µM (recombinant human MAO-A) read?
The inhibition at 1 µM was < 0%.

What about the inhibition at 10 µM (recombinant human MAO-B) of the same molecule?
The inhibition at 10 µM was 20.3 ± 0.49%.

With `COc1cccc(/C=C2\Oc3cc(OCCN4CCCC4)ccc3C2=O)c1` [Compound 3af] as the molecule, how does the inhibition at 1 µM (recombinant human MAO-A) read?
The inhibition at 1 µM was < 0%.

And the inhibition at 10 µM (recombinant human MAO-B)?
The inhibition at 10 µM was 39.1 ± 0.96%.

What does the source list for `COc1ccc(/C=C2\Oc3cc(OCCN4CCCC4)ccc3C2=O)c(OC)c1OC` [Compound 3bb]?
inhibition at 1 µM (recombinant human MAO-A): < 0%; inhibition at 10 µM (recombinant human MAO-B): 23.9 ± 0.81%

What does the source list for `COc1ccc(/C=C2\Oc3cc(OCCCN4CCCC4)ccc3C2=O)cc1OC` [Compound 3ao]?
inhibition at 1 µM (recombinant human MAO-A): < 0%; inhibition at 10 µM (recombinant human MAO-B): 39.2 ± 0.58%

What does the source list for `COc1cccc(/C=C2\Oc3cc(OCCN4CCOCC4)ccc3C2=O)c1` [Compound 3ai]?
inhibition at 1 µM (recombinant human MAO-A): 4.1 ± 0.48%; inhibition at 10 µM (recombinant human MAO-B): 27.9 ± 0.37%
